| melting point [°C] | SMILES |
| --- | --- |
| 135 to 136 | O=[N+]([O-])c1cccc2c(Cl)c(Br)cnc12 |
| 187 to 190 | Cc1ccc(C)c(NC(=O)N2CCC(C#N)CC2)c1 |
| 218 to 222 | CCOCc1nc2c(c(C)c(C)n3nnnc23)n1CCNS(C)(=O)=O |
| 144 to 146 | CN1CC(CCN2CCN(c3ccccc3)CC2)c2nc3ccccc3n2C1=O (stereo unspecified) |
| 144 | CCCCOc1cc(/C=C(\OCC)C(=O)O)ccc1OCCc1ccc(N(C)S(=O)(=O)CCCC)cc1 |
| 218 to 220 | CC(C)[C@H](NC(=O)CCC(=O)Nc1ccccc1)C(N)=O |
| 129 to 130 | O=C(O)CCc1oc(SCc2cccnc2)nc1-c1ccc(Cl)cc1 |
| 160 to 166 | COc1ccc(S(=O)(=O)N2C(=O)C(N)(c3ccccc3Cl)c3cc(Cl)ccc32)c(N)c1 (stereo unspecified) |
| 147 to 152 | Cc1cc(CO)nc2cc3c(cc12)OC(C)(C)[C@H](O)[C@H]3NCCc1ccc(F)cc1 (relative stereo) |
| 105 to 106 | CC1(C)CCOCN1C(=O)C(Cl)Cl |
| 67 to 68 | CC(O)c1cc2c(c(Cl)n1)OCC2C (stereo unspecified) |
| 97 to 99 | CC(C)Nc1nc2cc(F)c(Cl)cc2n1[C@@H]1O[C@H](C)[C@@H](O)[C@H]1O |
| 185 to 187 | CCOC(=O)c1ccccc1SC1C(=O)N(c2c(Cl)cc(Cl)cc2Cl)N=C1OC (stereo unspecified) |
| 84 to 85 | CCCCC(=O)c1c(O)oc(=O)c(C(=O)CCCC)c1O |
| 242 to 244 | O=C1CCC(N2Cc3c(OCc4cc5cc(N6CCCCC6)ccc5o4)cccc3C2=O)C(=O)N1 (stereo unspecified) |
| 136 | O=CNC(c1cccc(Cl)c1)c1ccnc2ccccc12 (stereo unspecified) |
| 58 to 61 | CC(C)Oc1cccc(C(=O)N2CCN(C(=O)CNC3CCN(Cc4ccccc4)CC3)C(c3ccc(Cl)c(Cl)c3)C2)c1 (racemic) |
| 92 to 93 | C=C(CCl)COc1ccc(C(=O)OC)cc1CS(=O)(=O)c1ccccc1 |
| 154 to 156 | O=C(N[C@H](Cc1ccccc1)C(=O)O)OCc1cc2cc(-c3ccccc3)ccc2o1 |
| 125 to 126 | CCC(=O)NC1=NN(c2ccc(F)cc2)C(C)C1 (stereo unspecified) |
| 99 to 100 | O=C(O)C(CCCc1cccc2ccccc12)c1ccccc1 (stereo unspecified) |
| 294 to 295 | Cc1cc(-c2c(F)cc3c(=O)c(C(=O)O)cn4c3c2S(=O)CC4C)cc(C)n1 (stereo unspecified) |
| 148 to 149 | CCOC(=O)c1c(C(=O)O)ccc(OC)c1OC |
| 185 to 188 | CCn1cc(C(=O)O)c(=O)c2cc(F)c(N3CCOC(CN(C)C)C3)c(F)c21 (stereo unspecified) |
| 136 | COc1cncnc1-c1ssc(=S)c1C |

| melting point [°C] | SMILES |
| --- | --- |
| 110 | COc1ccc2ccc(N3C(=O)c4ccccc4C3CC(O)CCC(C)C)nc2n1 (stereo unspecified) |
| 98 to 100 | CCOCn1c(-c2ccc(Cl)cc2)c(C#N)c(Sc2ccc(Cl)cc2)c1C(F)(F)F |
| 171 to 172 | CCc1noc(-c2cn(-c3ccc(OCc4ccccc4)cc3)cn2)n1 |
| 107 to 108 | CCOC(=O)c1[nH]c2c(Cl)ccc(Cl)c2c1C |
| 70 to 72 | C1=C(CCC2CCCO2)CCN(Cc2c[nH]c3ncccc23)C1 (stereo unspecified) |
| 129 to 132 | CCCCCCCCCCCCCCCCCC(=O)Oc1ccc2c(c1)C(=O)c1ccc(OC(=O)CCCCCCCCCCCCCCCCC)cc1C2=O |
| 129 to 132 | Cc1cc(C)c(/C=C2\C(=O)N(CN3CCCC3)c3ccccc32)[nH]1 |
| 183 to 184 | CC(=O)c1cc(C)cc(NC(=O)c2nnnn2Cc2ccccc2)c1O |
| 216 to 217 | COc1cc2c(cc1OC)C(=CO)C(=O)N2 |
| 207 | COc1ccc(N(Cc2ccc(C#N)cc2)n2ccnc2)cc1 |
| 123 to 126 | COC(=O)c1ccc(OC)cc1NC(C)=O |
| 200 | CCCC(=O)Nc1n[nH]c2cc(-c3ccncc3)ccc12 |
| 208 | CC(C)(C)c1ccc(C(=O)N[C@H]2CC[C@H](CCN3CCC(c4cccc5c4CCO5)CC3)CC2)cc1 |
| 107 to 108 | c1ccc(C2(Oc3cnccn3)CCNCC2)cc1 |
| 80 to 81 | Cc1cc(-c2noc(C3CC3)n2)cc(C)c1OCCCc1cc(CO)no1 |
| 138 to 139 | Cn1c(Sc2cccc(C(F)(F)F)c2)nc2c(-c3cccc(C(=O)NCCO)c3)cccc21 |
| 235 to 237 | COc1cc(S(C)(=O)=O)ccc1-c1nc2cc3c(cc2[nH]1)NC(=O)C3(C)C |
| 137 to 140 | CCn1c(-c2c(C)cc(C)cc2C)nc(-c2ccncc2)c1-c1ccc(C)cc1 |
| 139 to 140 | CC(C)c1ccc(C2=C(c3ccc(S(C)(=O)=O)cc3)OC3(CCCC3)C2=O)cc1 |
| > 300 | CC(C)=C1C(=O)Nc2cc3[nH]c(-c4ccncc4)nc3cc21 |
| 84 to 85 | CN1CCC2(OCCO2)C2(CCCC2)C1=O |
| 84 to 86 | O=S(CCO)Cc1cccnc1 (stereo unspecified) |
| 122 to 123 | COc1ccc(F)cc1C(C)(C)CC(O)(Cn1ncc(=O)c2ccccc21)C(F)(F)F (stereo unspecified) |
| 87 | CNc1c(N)c(C)nn1C |
| 89 | COc1ccc(S(=O)(=O)Nc2ccccc2O)cc1 |

| melting point [°C] | SMILES |
| --- | --- |
| > 300 | CC(=O)Nc1nc2c(s1)-c1nc(-c3ccccc3)ncc1C2 |
| 159 to 161 | CCN(C)C(=O)Nc1c(C(=O)c2ccccc2)[nH]c2cc(Cl)ccc12 |
| 162 | CCOC(=O)/C=C/c1cc(C(F)(F)F)ccc1C(=O)NCC(F)(F)F |
| 179 to 180 | Clc1cccc(-c2n[nH]cc2-c2ccnc(NCc3ccccc3)c2)c1 |
| 153 to 154 | O=C(NCc1cccs1)c1ccc(Cl)cc1 |
| 87 to 88 | COC(=O)CCc1cn(Cc2ccc(O)cc2)nc1-c1ccccc1 |
| 95 to 98 | CCOc1cccc2c1Sc1ccccc1C2 |
| 186 to 187 | CSc1c(C(Cc2ccccc2)C(=O)O)cc(C)c2c1[nH]c1ccccc12 (stereo unspecified) |
| 205 to 206 | CC(C)Oc1nc(SCc2cccc(C(F)(F)F)c2)nc2[nH]c(=O)cnc12 |
| 264 | CC(C)n1cc(-c2nc(C(N)=O)c(N)nc2-c2ccc(OC(F)(F)F)cc2)ccc1=O |
| 219 to 221 | COc1ccc(C(=O)Nc2nc(-c3ccccc3)c(-c3ccc(=O)n(C(C)C)n3)s2)cc1 |
| 224 to 227 | Cc1cn(-c2ccc3nnc4c(C)nc(C5CCCCC5)n4c3c2)c(C2CCCCC2)n1 |
| 84 | CCCCOc1ccc(S(=O)(=O)C2(C(=O)NO)CCN(CCCOc3ccccc3)CC2)cc1 |
| 106 to 108 | CC(=O)c1cn(Cc2ccccc2)c(=O)n(Cc2ccc(F)cc2)c1=O |
| 73.8 to 74.6 | COC1(OC)CC2CC[C@@]1(CS(=O)(=O)N(C(C)C)C(C)C)C2(C)C |
| 144 to 146 | CC=CC=C[C@@H]1C[C@H](CC(=O)O)OC2(CCCCC2)O1 (relative stereo) |
| 172 to 174 | CS(=O)c1cc(-c2nc(=O)c3ccccc3s2)ccn1 (stereo unspecified) |
| 156 to 157 | CCN1CCc2ccc(C(=O)CCC(=O)N3CCC(c4ccc(Cl)cc4)CC3)cc2CC1 |
| 216 to 217 | C=CCN1C(=O)C2=C(c3ccccc3)N(CC=C)C(=O)C2=C1c1ccccc1 |
| 92 to 95 | CC(=O)NCCC1CCc2ccc3nc(C4CC4)oc3c21 (stereo unspecified) |
| 41 to 43 | O=Cc1cccc(-c2ccccn2)n1 |
| 52 | CC(C)(C)[Si](C)(C)O[C@H]1CCC[C@@]2(C)[C@H]1CC[C@@H]2[C@]1(C)CC(=O)CO1 |
| 151 to 153 | Cc1[nH]cnc1Cn1nnnc1-c1cccc(Cl)c1Cl |
| > 260 | O=C(CI)Oc1cccc2c1C(=O)c1cn3c(c1C2=O)Cc1ccccc1C3 |
| 150 to 152 | Cc1ccc(NC(=O)c2cc(Cl)ccc2NCC2CCN(C3CCCC3)CC2)nc1 |

| melting point [°C] | SMILES |
| --- | --- |
| 92 to 93 | CC(C)Nc1cccnc1N1CCN(C(=O)c2ccc(C(=O)N3CCN(CCOCCO)CC3)cc2)CC1 |
| 121 to 123 | CN(C)CC/C=C1/c2ccccc2COc2ccc(C(=O)O)cc21 |
| 159 to 165 | CCOC(=O)c1cc(=O)c2c(OCC(O)COc3cccc(O)c3C(=O)C=CN(C)C)cccc2o1 (stereo unspecified) |
| 244 to 246 | Oc1nc(-c2ncccn2)nc(O)c1-c1cccs1 |
| 176 to 177 | COc1cccc(-c2c(Cl)c(CN3CCOCC3)nc3sc4c(c23)CCN(Cc2ccccc2)C4)c1OC |
| 142 | CC(C)C(=N)Nc1cc(F)ccc1N1CCOCC1 |
| 250 to 252 | Cn1c(CNC(=O)c2ccc3ccccc3c2)nc(-c2ccncn2)cc1=O |
| 252 to 255 | CC(c1oc2ccc(F)cc2c(=O)c1-c1cccc(F)c1)n1cnc2c(N)ncnc21 (stereo unspecified) |
| 149 to 150 | COc1cc2c(cc1O)CCN(CC(=O)c1ccc(OC)c(OC)c1)C2 |
| 86 to 89 | CCCCCCc1c(Br)c(-c2ccccc2)n(-c2ccc(C)cc2)c1-c1ccccc1 |
| 65 to 67 | Cc1ccnc(C=Cc2ccccc2)n1 |
| 82 to 84 | CC(=O)NC(=O)C(=O)C(C)(C)C |
| 121 to 123 | CC1(O)CC(=O)OC(C=Cc2ccccc2)C1(C)Br (stereo unspecified) |
| 160 to 161 | COc1ccc(C(=O)NCCCCCCCNC(=O)c2ccc(OC)c(OC)c2)cc1OC |
| 56 to 57 | CCCCCCCCCCCCOc1ccc(C(=O)OC)cc1 |
| 277 to 279 | Cc1nn(-c2ccsc2)c(=O)cc1-c1ccc(OC2CCN(C3CCC3)CC2)cc1 |
| 66 to 67 | Cc1ccccc1C(=O)c1ccccc1C |
| 227 | O=C1COc2ccc(-c3cnn(CC(F)(F)F)c3-c3ccc(F)cc3)cc2N1 |
| 131 to 134 | COc1ccc(NN=C(Sc2cc(C)ccc2C)C(C)=O)cc1 |
| 130 to 132 | COc1ccc(-c2nccc3c(CC#N)cccc23)cc1 |
| 91.2 to 92.1 | CCC(C)Cc1ccc(C(=O)O)cc1C#N (stereo unspecified) |
| 75 | CC(=O)Oc1ccc(N2CCN(C(C)=O)CC2)c(Br)c1 |
| 149 to 151 | NS(=O)(=O)c1ccccc1CN1CCCC1=O |

| SMILES | melting point [°C] |
| --- | --- |
| CNC(=O)CN1CCC2=C(C1)c1c(O)cc(C(C)C)cc1OC2(C)C | 178 to 190 |
| CCCN(CCC)Cc1csc(-c2ncn3c2CN(C)C(=O)c2c(Cl)cccc2-3)n1 | 121 to 123 |
| COc1cc(CN2CCN(c3ccccc3F)CC2)ccc1OC(=O)N(C)C | 130 to 133 |

Reference: a melting point compilation (Tetko et al.; mined from patent text by program, amines drawn as free bases though some values may be those of a salt)
